# Legend:
# [1] = Half life in rat at 1 mg/kg, iv; format: ADME, organism-based; set-up: dose 1 mg/kg, route intravenous; conditions: in vivo
# [2] = Total clearance in rat at 1 mg/kg, iv; format: ADME, organism-based; set-up: dose 1 mg/kg, route intravenous; conditions: in vivo
# [3] = Oral bioavailability in rat at 3 mg/kg; format: ADME, organism-based; conditions: in vivo
# [4] = Tmax in rat at 3 mg/kg, po; format: ADME, organism-based; set-up: dose 3 mg/kg, route oral; conditions: in vivo
# Cytochrome P450 1A2 = target: T1, Cytochrome P450 1A2 (Homo sapiens, UniProt P05177); assay: Inhibition of CYP1A2; format: ADME
# T1 sequence (P05177 whole entry): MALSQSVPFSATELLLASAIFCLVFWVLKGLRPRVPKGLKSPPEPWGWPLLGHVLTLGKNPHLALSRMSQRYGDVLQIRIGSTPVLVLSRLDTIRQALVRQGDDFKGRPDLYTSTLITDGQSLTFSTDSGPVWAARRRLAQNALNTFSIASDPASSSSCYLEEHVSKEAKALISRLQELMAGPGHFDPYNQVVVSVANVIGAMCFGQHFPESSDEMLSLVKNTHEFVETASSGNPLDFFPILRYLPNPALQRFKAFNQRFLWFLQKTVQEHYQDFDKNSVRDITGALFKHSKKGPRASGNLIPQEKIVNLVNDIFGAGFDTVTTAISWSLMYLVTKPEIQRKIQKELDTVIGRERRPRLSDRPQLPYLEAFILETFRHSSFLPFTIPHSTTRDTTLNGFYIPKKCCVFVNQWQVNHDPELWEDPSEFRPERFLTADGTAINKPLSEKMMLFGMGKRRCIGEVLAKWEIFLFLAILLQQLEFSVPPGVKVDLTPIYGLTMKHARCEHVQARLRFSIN
# Mus musculus [5] = assay: Antihyperglycemic activity in ICR mouse assessed as blood glucose lowering ratio at 10 mg/kg, po administered 10 mins prior glucose challenge measured after 30 mins by oral glucose tolerance test; format: functional
# [6] = Volume of distribution at steady state in rat at 1 mg/kg, iv; format: ADME, organism-based; set-up: dose 1 mg/kg, route intravenous; conditions: in vivo, read-out: Vdss
# [7] = target: T2, Glucose-dependent insulinotropic receptor (Homo sapiens) (UniProt Q8TDV5); assay: Agonist activity at human GPR119 expressed in HEK293 cells co-transfected with pCRE-Luc assessed as induction in cAMP level at 10 uM after 6 hrs by luciferase reporter gene assay relative to 10 uM of 2-{[2-(4-Bromophenyl)-6-methylpyrimidin-4-yl]amino}ethanol; format: functional, cell-based
# T2 sequence (whole entry): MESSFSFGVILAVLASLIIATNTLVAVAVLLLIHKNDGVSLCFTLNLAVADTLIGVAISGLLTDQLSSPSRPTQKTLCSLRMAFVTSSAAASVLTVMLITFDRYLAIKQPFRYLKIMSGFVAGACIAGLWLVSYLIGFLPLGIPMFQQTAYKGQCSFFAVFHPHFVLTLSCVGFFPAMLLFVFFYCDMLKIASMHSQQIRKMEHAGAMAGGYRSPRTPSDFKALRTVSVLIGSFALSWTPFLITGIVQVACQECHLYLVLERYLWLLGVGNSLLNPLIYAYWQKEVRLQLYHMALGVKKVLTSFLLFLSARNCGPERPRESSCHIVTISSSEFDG
# [8] = target: T2, Glucose-dependent insulinotropic receptor (Homo sapiens); assay: Agonist activity at human GPR119 expressed in HEK293 cells co-transfected with pCRE-Luc assessed as induction in cAMP level after 6 hrs by luciferase reporter gene assay relative to 10 uM of 2-{[2-(4-Bromophenyl)-6-methylpyrimidin-4-yl]amino}ethanol; format: functional, cell-based
# Mus musculus [9] = assay: Antihyperglycemic activity in ICR mouse assessed as blood glucose lowering ratio at 30 mg/kg, po administered 10 mins prior glucose challenge measured after 30 mins by oral glucose tolerance test; format: functional
SMILES,IC50 (Cytochrome P450 1A2),Intrinsic activity [7],EC [8],Activity (Mus musculus [5]),further results
Cc1cc(NCC(C)O)nc(-c2ccc(Br)cc2)n1 (stereo unspecified),,209%,3.6 µM,,
Cc1cc(NC(C)CO)nc(-c2ccc(Br)cc2)n1 (stereo unspecified),,82%,13 µM,,
Cc1cc(NCCO)nc(-c2ccc(I)cc2)n1,,66%,19 µM,,
Cc1cc(NCCO)nc(-c2ccc(Cl)cc2)n1,,48%,12 µM,,
COCCNc1cc(C)nc(-c2ccc(Br)cc2)n1,< 91 nM,209%,1.8 µM,13%,
OCCNc1cc(C(F)F)nc(-c2ccc(Br)cc2)n1,,195%,8.2 µM,,
CCc1cc(NCCO)nc(-c2ccc(Br)cc2)n1,,146%,5.9 µM,,

# Further lines, with some results ahead:
IC50 (Cytochrome P450 1A2),Intrinsic activity [7],EC [8],SMILES,Activity (Mus musculus [5]),further results
970 nM,,,Cc1cc(NCCc2ccc[n+]([O-])c2)nc(-c2ccc(Br)cc2)n1,38%,half-life [1]: 72 min; clearance [2]: 20.1 mL/min/kg; bioavailability [3]: 56%; Tmax [4]: 15 min; Vd [6]: 2 L/kg
< 91 nM,322%,0.91 µM,Cc1cc(NCC(C)C)nc(-c2ccc(Br)cc2)n1,24%,
660 nM,,,Cc1cc(NCCO)nc(-c2ccc(Br)cc2)n1,,Activity (Mus musculus [9]): 17%
< 91 nM,772%,0.73 µM,Cc1cc(NCCc2cccnc2)nc(-c2ccc(Br)cc2)n1,17%,
< 46 nM,294%,1.3 µM,Cc1cc(NCc2cccnc2)nc(-c2ccc(Br)cc2)n1,,
